# Counter-ions that a name gives are not always drawn. Like-named read-outs stand apart in the source and are kept apart here.
# Legend:
# SARS-CoV2 [1] = experiment: Drug pretreatment of Vero E6 cells prior to SARS-CoV2 infection, indirect immunofluorescence; assay type: cell-based
# Experimental: (§1) In carrying out the in vitro experiments, vero E6 cells (an African green monkey kidney cell line) were infected with SARS-CoV2 at a multiplicity of infection of 0.5 for 1 hour. The cells were washed with PBS and then incubated in OPTI-MEM (Invitrogen) medium with or without various concentrations of the following drug candidates: Artemether (from BiopharmaRx) Hydroxychloroquine (from Sigma Aldrich), Atazanavir (from Sigma Aldrich), and Efavirenz (from Sigma Aldrich), Fosamprenavir Calcium (from Sigma Aldrich), Saquinavir (from Sigma Aldrich) and Remdesivir (from AOBIOUS, INC., USA)
# (§2) Immunofluorescence staining was performed with SARS-CoV2-specific hyperimmune mouse ascitic fluid (HMAF) followed by anti-mouse fluorescein-coupled antibody.
# Experiments were carried out to determine the impact of artemether treatment on SARS-CoV2 infection. Permissive Vero E6 cells were pre-treated with various concentrations of artemether (0.1-50 μM) for 18-24 hours prior to virus infection. Cells were then infected with SARS-CoV2, and virus antigens were visualized by indirect immunofluorescence. For quantitative purposes, we counted the number of cells stained positive from three random locations on a slide. The average number of positively stained control cells was scored as 100% and was compared with the number of positive cells observed under various artemether concentrations. Pretreatment with 0.1, 1, 10, 20, 30, 40 and 50 μM artemether reduced infectivity by 4%, 12%, 32%, 45%, 63%, 92% and 100% respectively. Reproducible results were obtained from three independent experiments.
# SARS-CoV2 [2] = experiment: Drug added to Vero E6 cells immediately after SARS-CoV2 adsorption, indirect immunofluorescence after 24 hours; assay type: cell-based; settings: for inhibition: added after the initiation of infection
# Experimental: as §1, §2
# The antiviral properties of artemether on SARS-CoV2 after the initiation of infection were studied. Vero E6 cells were infected with the virus and fresh medium supplemented with various concentrations of artemether was added immediately after virus adsorption. Infected cells were incubated for an additional 24 hours, after which the presence of virus antigens was analyzed by indirect immunofluorescence analysis. When artemether was added after the initiation of infection, there was a dramatic dose dependent decrease in the number of virus antigen-positive cells. […] A half-maximal inhibitory effect was estimated to occur at 16.5±1.0 μM artemether. […] (FIG. 2).
# SARS-CoV2 [3] = experiment: In-vitro experiments, time of drug addition relative to infection; assay type: cell-based; settings: added between 3 hours pre-infection and 3 hours after infection
# Experimental: Less inhibition was detected when the drug was added after 12 hours post-infection (Our observation was consistent with the report by Agostini et al regarding GS-5734 (remdesivir) (Agostini M L, Andres E L, Sims A C, Graham R L, Sheahan T P, Lu X, Smith E C, Case J B, Feng J Y, Jordan R, Ray AS, Cihlar T, Siegel D, Mackman R L, Clarke M O, Baric R S, Denison M R. 2018. Coronavirus susceptibility to the antiviral remdesivir (GS-5734) is mediated by the viral polymerase and the proofreading exoribonuclease. mBio 9:e00221-18. https://doi.org/10.1128/mBio.00221-18.).
# as §1
# [4] = Peak Inhibitory Concentration (Threshold) after oral administration
# Experimental: It is noted that the Peak Inhibitory Concentration (Threshold) of Artemether and Remdesivir were at 120 minutes after oral administration. The Peak Inhibitory Concentration (Threshold) of Lumefantrine was at 60 minutes after oral administration.
# [5] = cited from earlier work
# [6] = Dissolution test of Artemether/Lumefantrine-Remdesivir soft gel capsule; assay type: physicochemical; settings: 0.1 N. HCl with 3% Benzalkonium Chloride
# Source text: The soft gel capsule of Artemether and Lumefantrine is comprised: Artemether 4 to 5% w/w, Lumefantrine 20-24% w/w, Remdesivir 18-20%, non-aqueous vehicle 15-20% w/w, preservative less than 1% w/w, viscosity imparting agent 15-20% w/w, suspending agent 1 to 5% w/w and emulsifying agent 1 to 3% w/w and a process to manufacture the said preparation comprising of the following steps as given in the above Patent. • (a) Preservatives and Solid Suspending Agents were milled and sifted. • (b) Non-aqueous vehicle, viscosity imparting agent and liquid suspending agents were filtered to remove the foreign particles • (c) Additional steps for mixing preservatives and suspending agents: • (i) Preservatives were dissolved in non-aqueous vehicle; • (ii) Emulsifying agents were warmed and/or melted and added into mixture in (i) above; • (iii) Viscosity imparting agent is added to mixture of (ii) above and the resultant mixture is stirred. • (iv) Suspending agent is added and mixed with the mixture in (iii) above; and • (v) The mixture of (a) above and (c) (iv) above was homogenized. • (d) The mixture in (v) above was the encapsulated in soft gelatin.
# Drug dissolution testing is routinely used to provide critical in vitro drug release information for both quality control purposes to predict in vivo drug release profiles.
# The media for dissolution test was 0.1 N. HCl with 3% Benzalkonium Chloride.
# severe COVID-19 = settings: cited from earlier work
# COVID-19 = settings: preliminary results, cited from earlier work
# [7] = pretreatment 18-24 hours prior to virus infection, 0.1 μM
# [8] = pretreatment 18-24 hours prior to virus infection, 1 μM
# [9] = pretreatment 18-24 hours prior to virus infection, 10 μM
# [10] = pretreatment 18-24 hours prior to virus infection, 20 μM
# [11] = pretreatment 18-24 hours prior to virus infection, 30 μM
# [12] = pretreatment 18-24 hours prior to virus infection, 40 μM
# [13] = pretreatment 18-24 hours prior to virus infection, 50 μM
# [14] = Severe acute respiratory syndrome coronavirus 2, Vero C1008, read-out: half-maximal inhibitory effect, drug added immediately after virus adsorption, Vero E6 cells, estimated
# [15] = Severe acute respiratory syndrome coronavirus 2, Vero C1008, drug added after the initiation of infection, Vero E6 cells, read-out: concentration that reduced the infection by 50%
# [16] = Severe acute respiratory syndrome coronavirus 2, Vero C1008, drug added immediately after virus adsorption, Vero E6 cells, estimated, read-out: half-maximal inhibitory effect
# [17] = pretreatment prior to virus infection, 5 μM
# [18] = pretreatment prior to virus infection, 15 μM
# [19] = pretreatment prior to virus infection, 25 μM
Compound,reduced infectivity (SARS-CoV2 [1]; [7]),reduced infectivity (SARS-CoV2 [1]; [8]),reduced infectivity (SARS-CoV2 [1]; [9]),reduced infectivity (SARS-CoV2 [1]; [10]),reduced infectivity (SARS-CoV2 [1]; [11]),reduced infectivity (SARS-CoV2 [1]; [12]),reduced infectivity (SARS-CoV2 [1]; [13]),IC50 (SARS-CoV2 [2]; [14]),IC50 (SARS-CoV2 [2]; [15]),IC50 (SARS-CoV2 [2]; [16]),other results
"O=C1Nc2ccc(Cl)cc2[C@@](C#CC2CC2)(C(F)(F)F)O1 [efavirenz, Efavirenz]",3%,9%,25%,48%,73%,89%,100%,51 ± 1 µM,,,"inhibition (SARS-CoV2 [2]; 80-200 μM concentrations): 73%-96%; IC50 (SARS-CoV2 [2]; Severe acute respiratory syndrome coronavirus 2, Vero C1008, read-out: concentration that reduced the infection by 50%, drug added after the initiation of infection, Vero E6 cells): ~55 µM"
"CC(C)(C)NC(=O)[C@@H]1C[C@@H]2CCCC[C@@H]2CN1C[C@@H](O)[C@H](Cc1ccccc1)NC(=O)[C@H](CC(N)=O)NC(=O)c1ccc2ccccc2n1 [saquinavir, Saquinavir]",,5%,16%,35%,,47%,,96 ± 1 µM,,,"reduced infectivity (SARS-CoV2 [1]; pretreatment 18-24 hours prior to virus infection, 60 μM): 78%; reduced infectivity (SARS-CoV2 [1]; pretreatment 18-24 hours prior to virus infection, 80 μM): 85%; reduced infectivity (SARS-CoV2 [1]; pretreatment 18-24 hours prior to virus infection, 100 μM): 100%; inhibition (SARS-CoV2 [2]; 120-240 μM concentrations): 63%-96%"
"COC(=O)NC(C(=O)NN(Cc1ccc(-c2ccccn2)cc1)C[C@H](O)[C@H](Cc1ccccc1)NC(=O)[C@@H](NC(=O)OC)C(C)(C)C)C(C)(C)C (stereo partly drawn) [Atazanavir, methyl N-[(1S)-1-{N′-[(2S,3S)-2-hydroxy-3-[(2S)-2-[(methoxycarbonyl)amino]-3,3-dimethylbutanamido]-4-phenylbutyl]-N′-{[4-(pyridin-yl)phenyl]methyl} hydrazinecarbonyl}-2.2-dimethylpropyl]carbamate]",,,,,,,,,,,inhibition by time of addition (SARS-CoV2 [3]): maximal inhibition
CCCCN(CCCC)CC(O)c1cc(Cl)cc2c1-c1ccc(Cl)cc1/C2=C/c1ccc(Cl)cc1 (centres unmarked) [Lumefantrine],,,,,,,,,,,time of Peak Inhibitory Concentration (Threshold) [4]: 60 min; solubility in water (words) [5]: insoluble
"CC(C)CN(C[C@H](OP(=O)(O)O)[C@H](Cc1ccccc1)NC(=O)O[C@H]1CCOC1)S(=O)(=O)c1ccc(N)cc1 [fosamprenavir calcium, Fosamprenavir Calcium]",3%,10%,28%,55%,73%,91%,100%,,~58 µM,58 ± 1 µM,"inhibition (SARS-CoV2 [2]; 80-200 μM concentrations): 75%-96%; IC50 (SARS-CoV2 [2]; read-out: concentration that reduced the infection by 50%, drug added after the initiation of infection, Vero E6 cells): ~95 µM"
"CCC(CC)COC(=O)[C@H](C)N[P@](=O)(OC[C@H]1O[C@@](C#N)(c2ccc3c(N)ncnn23)[C@H](O)[C@@H]1O)Oc1ccccc1 [Remdesivir, 2-ethylbutyl (2S)-2-[[[(2R,3S,4R,5R)-5-(4-aminopyrrolo[2,1-f][1,2,4]triazin-7-yl)-5-cyano-3,4-dihydroxyoxolan-2-yl]methoxy-phenoxyphosphoryl]amino]propanoate]",7%,21%,63%,96%,,,,,~2.4 µM,2.4 ± 1 µM,"reduced infectivity (SARS-CoV2 [1]; [17]): 42%; reduced infectivity (SARS-CoV2 [1]; [18]): 84%; reduced infectivity (SARS-CoV2 [1]; [19]): 100%; inhibition (SARS-CoV2 [2]; 5-50 μM concentrations): 68%-96%; % Cumulative Drug Release ([6]; 60 minute time frame): 91.7%; % of Drug Release in a Dissolution Test ([6]; sample time 30 minute): 52.6%; % of Drug Release in a Dissolution Test ([6]; sample time 60 minute): 73.4%; % of Drug Release in a Dissolution Test ([6]; sample time 90 minute): 85.8%; % of Drug Release in a Dissolution Test ([6]; sample time 120 minute): 92.6%; time of Peak Inhibitory Concentration (Threshold) [4]: 120 min; stopped early because of adverse events (severe COVID-19; adult patients admitted to hospital for severe COVID-19, 237 enrolled): 18 patients; clinical benefits (severe COVID-19; adult patients admitted to hospital for severe COVID-19): not associated with statistically significant clinical benefits; stopped early because of adverse events (severe COVID-19; share of patients, adult patients with severe COVID-19): 12%; faster time to recovery than placebo (COVID-19; 1063 patients, p<0.001): 31%; median time to recovery (COVID-19; 1063 patients): 11 days; mortality rate (COVID-19; p=0.059 vs placebo): 8.0%; solubility in water [5]: 330 µg/mL; solubility in water (words) [5]: sparingly soluble"
CCN(CCO)CCCC(C)Nc1ccnc2cc(Cl)ccc12 (centres unmarked) [hydroxychloroquine sulfate],6%,18%,47%,63%,81%,92%,100%,,,7.5 ± 1 µM,"inhibition (SARS-CoV2 [2]; 40-100 μM concentrations): 75-96%; reduced the infection (SARS-CoV2 [2]; approximately 10 μM added immediately after virus adsorption, 24 hours): 63%"
"C[C@H]1O[C@@H](O[C@H]2[C@@H](O)C[C@H](O[C@H]3[C@@H](O)C[C@H](O[C@H]4CC[C@@]5(C)[C@H](CC[C@@H]6[C@@H]5C[C@@H](O)[C@]5(C)[C@@H](C7=CC(=O)OC7)CC[C@]65O)C4)O[C@@H]3C)O[C@@H]2C)C[C@H](O)[C@@H]1O [digoxin, 3-[(3S,5R,8R,9S, 10S, 12R, 13S, 14S, 17R)-3-[(2R,4S,5S,6R)-5-[(2S,4S,5S,6R)-5-[(2S,4S,5S,6R)-4,5-dihydroxy-6-methyloxan-2-yl]oxy-4-hydroxy-6-methyloxan-2-yl]oxy-4-hydroxy-6-methyloxan-2-yl]oxy-12,14-dihydroxy-10, 13-dimethyl-1,2,3,4,5,6,7,8,9, 11, 12, 15, 16, 17-tetradecahydrocyclopenta[a]phenanthren-17-yl]-2H-furan-5-one]",,,,,,,,0.17 ± 0.05 µM,~0.17 µM,,inhibition (SARS-CoV2 [2]; 0.20-0.50 μM concentrations): 73%-97%
COC(=O)N[C@H](C(=O)N[C@@H](Cc1ccccc1)[C@@H](O)CN(Cc1ccc(-c2ccccn2)cc1)NC(=O)[C@@H](NC(=O)OC)C(C)(C)C)C(C)(C)C [atazanavir sulfate],5%,15%,46%,92%,,,,,~11 µM,11.5 ± 1 µM,reduced infectivity (SARS-CoV2 [1]; [17]): 28%; reduced infectivity (SARS-CoV2 [1]; [18]): 78%; reduced infectivity (SARS-CoV2 [1]; [19]): 100%; inhibition (SARS-CoV2 [2]; 40-100 μM concentrations): 86%-96%
